Measured values reported in patent publication US20230364194A1, “GLP-1R/GCGR Dual Target Agonist Polypeptide Derivative for Treatment of Hepatic Fibrosis Associated with Viral Hepatitis” (Shenzhen Turier Biotech. Co., Ltd., priority 2020, published 2023).
Starred links: 1 amine or outer side, 2 acyl side, 3 side chain; linkers in the order of their positions; H or OH if unused. Non-standard residues stand in square brackets, D forms with d. Groups on a side chain read outwards from the residue. Primed or numbered codes have the meaning given here. No end group written: not given here. *: point of attachment. C18 diacid = O=C(O)CCCCCCCCCCCCCCCCC(=O)*; C16 diacid = O=C(O)CCCCCCCCCCCCCCC(=O)*; γGlu = O=C(O)[C@H](CCC(=O)[*:2])N[*:1]; Stearoyl = CCCCCCCCCCCCCCCCCC(=O)*; Palmitoyl = CCCCCCCCCCCCCCCC(=O)*; PEG2′ = not defined here; Aib = CC(C)(N)C(=O)O

How the values were obtained:
[1] = test system: HBV-infected humanized mouse liver; assay: Hepatic fibrosis of HBV-infected humanized mouse (hepatitis virus-infected humanized mouse fibrosis model); type: in vivo; details: 40 ug/Kg, intraperitoneal injection, once every other day for 3 weeks; for Accumulation of collagen fibers (FG/SR staining of liver) / Hepatic fibrosis and inflammation level (FG/SR and H&E staining of liver): compared with control group without administration; for Serum ALT: versus before administration
Procedure: In order to study the effect of the polypeptide compounds of the present invention in hepatic fibrosis associated with viral hepatitis, the polypeptide compounds of the present invention were used for hepatic fibrosis of HBV-infected humanized mouse. […] The specific steps are shown as follows:
Forty newborn NOD-scid IL-2Rγ-/- (NIKO) mice were bred.
These mice were injected with human stem cells for humanization (2 weeks).
Referring to FIG. 10, blood samples were taken to determine the humanization level by flow cytometry. All the mice used in the experiment expressed humanization according to in vivo concentrations of CD4 and CD8.
The mice were divided into 8 groups, fed with high-fat diet and infected with HBV (1 week).
The development of fibrosis in mice was monitored (8-10 weeks).
The polypeptide compounds 2, 5, 11, 15, 20, 23 and 25 were selected, which were stored at -20° C.
The above 40 mice were divided into 8 groups for injection treatment, with grouping and injection administration as follows: blank model control group (CTR), physiological saline, intraperitoneal injection, n=5. • 1) Administration group, polypeptide compound 2, 40 ug/Kg, intraperitoneal injection, n=5. • 2) Administration group, polypeptide compound 5, 40 ug/Kg, intraperitoneal injection, n=5. • 3) Administration group, polypeptide compound 11, 40 ug/Kg, intraperitoneal injection, n=5. • 4) Administration group, polypeptide compound 15, 40 ug/Kg, intraperitoneal injection, n=5. • 5) Administration group, polypeptide compound 20, 40 ug/Kg, intraperitoneal injection, n=5. • 6) Administration group, polypeptide compound 23, 40 ug/Kg, intraperitoneal injection, n=5. • 7) Administration group, polypeptide compound 25, 40 ug/Kg, intraperitoneal injection, n=5.
They were injected once every other day for 3 weeks.
After 3 weeks of administration, the mice were sacrificed to take samples for subsequent bioassay experiments. The serum samples from the mice were used for ALT and human IFNγ tests. Paraffin sections were prepared from partial liver tissues of the mice and stained with hematoxylin-eosin (H&E), […]/Sirius red (FG/SR) and immunohistochemical fluorescence (α-SMA), and statistics were made with Image-pro plus, Graph pad and similar software.
In the HBV induced hepatic fibrosis model, its characteristics are: inflammatory cell infiltration around the central vein area, hydropic degeneration of hepatocytes, and increased accumulation of collagen fibers in the portal area and the hepatic interlobular septum. After 3 weeks of administration, the mice were sacrificed to take samples. Blood was taken from the retrobulbar vein for detection of serological indicators, and liver tissues were taken for pathological analysis.

[2] = test system: Hepatic stellate cell strain LX-2; assay: In vitro effect on expression of LX-2 cell activation marker α-SMA (Western Blot, β-actin reference); type: cell-based; details: LX-2 cells, 10.0 uM, 48 hours, negative control = 100%
Source text: Hepatic stellate cell strain LX-2 (from China Center for Type Culture Collection, Shanghai) was selected to study and observe the effects of polypeptide compounds 1-25 on the expression level of LX-2 cell activation marker α-smooth muscle actin (α-SMA). The control group was given the same volume of Dulbecco’s modified Eagle medium (DMEM) (from Gibco, United States), and β-actin (from TransGen Biotech) as the endogenous reference, wherein, α-SMA is a symbolic feature that distinguishes […] from myofibroblasts.
Hepatic stellate cell LX-2 was laid on 35 mm cell culture plate, cultured with DMEM (high glucose)+10% FBS+1% double-antibody culture medium (Thermo Fisher), placed overnight when the cells grew to 70% convergence at 37° C. under the condition of 5% CO2 without serum, and treated with the above GLP-1R/GCGR dual target agonist polypeptide derivatives (namely, polypeptide compounds 1-25) (dissolved in PBS) for 48 hours from the next morning to extract cell protein, and then Western Blot was performed with β-actin as endogenous reference to analyze the expression levels of α-SMA and β-actin by gray-scale analysis using Image J 1.50i. PBS with the same volume as that in experimental group was added in negative control.
The above polypeptide compounds 1-25 with a concentration of 10.0 µM were added, showing that they could reduce the expression of α-SMA at the concentration of 10.0 µM; and the negative control had no effect on the expression of α-SMA (referring to Table 2).
The integrated gray scale of α-SMA/β-actin in the negative control group was considered to be 100% to analyze the in vitro inhibitory activity on hepatic fibrosis by tested polypeptides.

Substance | α-SMA expression in liver tissues (IF staining) [1] | Accumulation of collagen fibers (FG/SR staining of liver) [1] | Hepatic fibrosis and inflammation level (FG/SR and H&E staining of liver) [1] | Serum ALT [1] | Relative expression of α-SMA (α-SMA/β-actin, %) [2] [%]
His-(D-Ser)-Gln-Gly-Thr-Phe-Thr-Ser-Asp-Tyr-Ser-Lys-Tyr-Leu-Asp-Glu-Lys(PEG2-PEG2-γGlu-CO(CH2)16CO2H)-Arg- Ala-Gln-Asp-Phe-Val-Gln-Trp-Leu-Met-Asn-Thr-Gly-Gly-Pro-Ser-Ser-Gly-Ala-Pro-Pro-Pro-Ser-NH2 (H[dS]QGTFTSDYSKYLDEK([PEG2′-PEG2′-γGlu-C18 diacid])RAQDFVQWLMNTGGPSSGAPPPS-NH2) [Compound 2] | significantly inhibited | significantly inhibited the accumulation of collagen fibers | decreased the hepatic fibrosis and inflammation level | decreased from that before administration | 34.65
His-(D-Ser)-Gln-Gly-Thr-Phe-Thr-Ser-Asp-Tyr-Ser-Lys-Tyr-Leu-Asp-Glu-Lys-Ala-Ala-Lys(PEG2-PEG2-yGlu- CO(CH2)16CH3)-Glu-Phe-Ile-Glu-Trp-Leu-Leu-Arg-Gly-Gly- Gly-Pro-Ser-Ser-Gly-Ala-Pro-Pro-Pro-Ser-NH2 (H[dS]QGTFTSDYSKYLDEKAAK([PEG2′-PEG2′-γGlu-Stearoyl])EFIEWLLRGGGPSSGAPPPS-NH2) [Compound 11] | significantly inhibited | significantly inhibited the accumulation of collagen fibers | decreased the hepatic fibrosis and inflammation level | decreased from that before administration | 35.78
His-(D-Ser)-Gln-Gly-Thr-Phe-Thr-Ser-Asp-Tyr-Ser-Lys-Tyr-Leu-Asp-Glu-Lys-Ala-Ala-Lys(PEG2-PEG2-γGlu- CO(CH2)14CH3)-Glu-Phe-Ile-Glu-Trp-Leu-Leu-Asn-Gly-Gly- Gly-Pro-Ser-Ser-Gly-Ala-Pro-Pro-Pro-Ser-NH2 (H[dS]QGTFTSDYSKYLDEKAAK([PEG2′-PEG2′-γGlu-Palmitoyl])EFIEWLLNGGGPSSGAPPPS-NH2) [Compound 15] | significantly inhibited | significantly inhibited the accumulation of collagen fibers | decreased the hepatic fibrosis and inflammation level | decreased from that before administration | 37.25
His-(D-Ser)-Gln-Gly-Thr-Phe-Thr-Ser-Asp-Tyr-Ser-Lys-Tyr-Leu-Asp-Lys(PEG2-PEG2-yGlu-CO(CH2)16CO2H)-Arg-Arg- Ala-Gln-Asp-Phe-Val-Gln-Trp-Leu-Leu-Asn-Thr-Gly-Gly-Pro-Ser -Ser-Gly-Ala-Pro-Pro-Pro-Ser-NH2 (H[dS]QGTFTSDYSKYLDK([PEG2′-PEG2′-γGlu-C18 diacid])RRAQDFVQWLLNTGGPSSGAPPPS-NH2) [Compound 22] |  |  |  |  | 48.76
His-(D-Ser)-Gln-Gly-Thr-Phe-Thr-Ser-Asp-Tyr-Ser-Lys-Tyr-Leu-Asp-Lys(PEG2-PEG2-yGlu-CO(CH2)16CO2H)-Arg-Arg- Ala-Gln-Asp-Phe-Val-Gln-Trp-Leu-Nle-Asn-Thr-Gly-Gly-Pro-Ser -Ser-Gly-Ala-Pro-Pro-Pro-Ser-NH2 (HXQGTFTSDYSKYLDKRRAQDFVQWLXNTGGPSSGAPPPS; D-Ser; Nle; PEG2-PEG2-γGlu-C18 diacid lipidation; C-terminal amide; (2)..(2) Xaa=D-Ser; (16)..(16) A side chain of Lys is linked to -PEG2-PEG2-AGlu-CO(CH2)16CO2H; (27)..(27) Xaa=Nle) [Compound 21] |  |  |  |  | 43.39
His-(D-Ser)-Gln-Gly-Thr-Phe-Thr-Ser-Asp-Tyr-Ser-Lys-Tyr-Leu-Asp-Lys(PEG2-PEG2-γGlu-CO(CH2)14CH3)-Arg-Arg-Ala- Gln-Asp-Phe-Val-Gln-Trp-Leu-Met-Asn-Thr-Gly-Gly-Pro-Ser-Ser-Gly-Ala-Pro-Pro-Pro-Ser-NH2 (H[dS]QGTFTSDYSKYLDK([PEG2′-PEG2′-γGlu-Palmitoyl])RRAQDFVQWLMNTGGPSSGAPPPS-NH2) [Compound 1] |  |  |  |  | 57.59
His-(D-Ser)-Gln-Gly-Thr-Phe-Thr-Ser-Asp-Tyr-Ser-Lys-Tyr-Leu-Asp-Lys(PEG2-PEG2-γGlu-CO(CH2)16CH3)-Arg-Arg-Ala- Gln-Asp-Phe-Val-Gln-Trp-Leu-Met-Asn-Thr-Gly-Gly-Pro-Ser-Ser-Gly-Ala-Pro-Pro-Pro-Ser-NH2 (H[dS]QGTFTSDYSKYLDK([PEG2′-PEG2′-γGlu-Stearoyl])RRAQDFVQWLMNTGGPSSGAPPPS-NH2) [Compound 19] |  |  |  |  | 44.78
His-(D-Ser)-Gln-Gly-Thr-Phe-Thr-Ser-Asp-Tyr-Ser-Lys-Tyr-Leu-Asp-Lys(PEG2-PEG2-γGlu-CO(CH2)16CO2H)-Arg-Arg- Ala-Gln-Asp-Phe-Val-Gln-Trp-Leu-Met-Asn-Thr-Gly-Gly-Pro-Ser-Ser-Gly-Ala-Pro-Pro-Pro-Ser-NH2 (H[dS]QGTFTSDYSKYLDK([PEG2′-PEG2′-γGlu-C18 diacid])RRAQDFVQWLMNTGGPSSGAPPPS-NH2) [Compound 17] |  |  |  |  | 38.78
His-(D-Ser)-Gln-Gly-Thr-Phe-Thr-Ser-Asp-Tyr-Ser-Lys-Tyr-Leu-Asp-Lys-Lys(PEG2-PEG2-γGlu-CO(CH2)14CH3)-Arg-Ala- Gln-Asp-Phe-Val-Gln-Trp-Leu-Met-Asn-Thr-Gly-Gly-Pro-Ser-Ser-Gly-Ala-Pro-Pro-Pro-Ser-NH2 (H[dS]QGTFTSDYSKYLDKK([PEG2′-PEG2′-γGlu-Palmitoyl])RAQDFVQWLMNTGGPSSGAPPPS-NH2) [Compound 16] |  |  |  |  | 40.86
His-(D-Ser)-Gln-Gly-Thr-Phe-Thr-Ser-Asp-Tyr-Ser-Lys-Tyr-Leu-Asp-Lys-Lys(PEG2-PEG2-γGlu-CO(CH2)16CO2H)-Ala- Ala-His-Asp-Phe-Val-Glu-Trp-Leu-Leu-Arg-Thr-Gly-Gly-Pro-Ser-Ser-Gly-Ala-Pro-Pro-Pro-Ser-NH2 [Compound 7] |  |  |  |  | 46.53
His-Aib-Gln-Gly-Thr-Phe-Thr-Ser-Asp-Lys(PEG2-PEG2-yGlu- CO(CH2)14CH3)-Ser-Lys-Tyr-Leu-Asp-Glu-Arg-Arg-Ala-Gln- Asp-Phe-Val-Gln-Trp-Leu-Leu-Asp-Gly-Gly-Gly-Pro-Ser-Ser-Gly-Ala-Pro-Pro-Pro-Ser-NH2 (H[Aib]QGTFTSDK([PEG2′-PEG2′-γGlu-Palmitoyl])SKYLDERRAQDFVQWLLDGGGPSSGAPPPS-NH2) [Compound 6] |  |  |  |  | 42.34
His-Aib-Gln-Gly-Thr-Phe-Thr-Ser-Asp-Lys(PEG2-PEG2-yGlu- CO(CH2)16CH3)-Ser-Lys-Tyr-Leu-Asp-Glu-Arg-Arg-Ala-Gln- Asp-Phe-Val-Gln-Trp-Leu-Leu-Asp-Gly-Gly-Pro-Ser-Ser-Gly-Ala-Pro-Pro-Pro-Ser-NH2 (H[Aib]QGTFTSDK([PEG2′-PEG2′-γGlu-Stearoyl])SKYLDERRAQDFVQWLLDGGPSSGAPPPS-NH2) [Compound 4] |  |  |  |  | 40.19
His-Aib-Gln-Gly-Thr-Phe-Thr-Ser-Asp-Lys(PEG2-PEG2-γGlu- CO(CH2)14CO2H)-Ser-Lys-Tyr-Leu-Asp-Glu-Arg-Arg-Ala- Gln-Asp-Phe-Val-Gln-Trp-Leu-Leu-Asp-Gly-Gly-Gly-Pro-Ser-Ser-Gly-Ala-Pro-Pro-Pro-Ser-NH2 (H[Aib]QGTFTSDK([PEG2′-PEG2′-γGlu-C16 diacid])SKYLDERRAQDFVQWLLDGGGPSSGAPPPS-NH2) [Compound 3] |  |  |  |  | 45.28
